# Like-named read-outs stand apart in the source and are kept apart here. Positions of bridges follow the written chain, without caps; N, C: chain ends. Non-standard residues stand in square brackets, D forms with d. Residues, ends and D or L forms follow the SMILES beside them. Phe(4-F) = N[C@@H](Cc1ccc(F)cc1)C(=O)O; R8 = C=CCCCCCC[C@@](C)(N)C(=O)O; hLeu = CC(C)CC[C@H](N)C(=O)O; S5 = C=CCCC[C@](C)(N)C(=O)O; Aib = CC(C)(N)C(=O)O
# Tests used:
# [1] = system: ABT-199 resistant Burkitt lymphoma Raji cells; test: WST-1 anti-proliferative activity in Raji cells; format: cell-based, Human; settings: for IC50: TABLE 9, Raji cell proliferation
# Description: WST-1 is a cell proliferation reagent that is used in colorimetric assays designed to measure the relative proliferation rates of cells in culture. The assay is based on the conversion of the tetrazolium salt WST-1 into a colored dye by mitochondrial dehydrogenase enzymes. The soluble salt is released into the media. Within a given time period, the reaction produces a color change that is directly proportional to the amount of mitochondrial dehydrogenase in a culture. The WST-1 assay measures the net metabolic activity of cells.
# MCL-1 driven Raji cells [2] = test: cells; settings: Homo sapiens, read-out: EC50 (anti-proliferative effects)
# Mcl-1 [3] = biological target: T1, Mcl-1 (Homo sapiens, UniProt Q07820); settings: cited from earlier work
# T1 sequence (Q07820 whole entry, species assumed): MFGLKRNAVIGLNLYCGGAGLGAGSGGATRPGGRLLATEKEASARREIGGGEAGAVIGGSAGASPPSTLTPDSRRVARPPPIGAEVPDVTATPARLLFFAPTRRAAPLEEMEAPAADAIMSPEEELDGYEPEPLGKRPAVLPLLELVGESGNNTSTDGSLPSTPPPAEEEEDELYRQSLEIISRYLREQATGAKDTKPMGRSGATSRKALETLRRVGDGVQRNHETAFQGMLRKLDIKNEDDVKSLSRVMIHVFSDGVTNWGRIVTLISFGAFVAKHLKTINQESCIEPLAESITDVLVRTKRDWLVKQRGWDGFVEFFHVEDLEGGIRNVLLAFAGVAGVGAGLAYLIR
# [4] = biological target: T2, MCL-1/BAK protein-protein interaction (Homo sapiens, UniProt Q07820); test: MCL-1 displacement study (BAK FRET signal); format: cell-based
# T2 construct: host or cells: Raji
# T2 sequence (Q07820 whole entry): as the sequence (Q07820 whole entry, species assumed) above
# Procedure: BIM peptidomimetic macrocycles were tested for displacement of MCL-1 from a BAK fluorescence resonance energy transfer (FRET) peptide.
# FIG. 19 compares normalized FRET signals of samples to determine the samples' effects in disrupting MCL-1/BAK protein-protein interactions.
# Mcl-1, Bcl-xL, Bcl-2 [5] = settings: TABLE 8; † reported in the literature; cited from earlier work
# Mcl-1, Bcl-xL, Bcl-2 [6] = test: BCL-2 family selectivity profile; format: binding; settings: for Profile: TABLE 8
# Description: The binding spectrum of stapled BIM BH3 peptides were tuned for BCL-2 family selectivity. […] ABT-199 is venetoclax, and † represents values reported in the literature.
# Mcl-1 [7] = biological target: T1, Mcl-1; test: Ki determination for Mcl-1 (BCL-2 family binding spectrum)
# Outline: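 Binding to Mcl-1 was measured as displacement of a fluorescein-labelled macrocyclic peptidomimetic, read by fluorescence polarization. Constants were fitted by nonlinear regression.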
# Bcl-xL = Bcl-xL (Homo sapiens, UniProt Q07817); test: Ki determination for Bcl-xL (BCL-2 family binding spectrum)
# Chain of Bcl-xL (Q07817 whole entry, species assumed): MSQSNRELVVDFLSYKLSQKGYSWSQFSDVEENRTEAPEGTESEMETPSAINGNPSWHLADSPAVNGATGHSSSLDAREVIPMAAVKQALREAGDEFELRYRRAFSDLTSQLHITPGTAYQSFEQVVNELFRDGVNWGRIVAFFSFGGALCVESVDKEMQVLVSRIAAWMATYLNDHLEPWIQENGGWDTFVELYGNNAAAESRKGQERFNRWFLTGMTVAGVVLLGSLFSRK
# Outline: (§1)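 Competitive fluorescence polarization: compounds (1 nM–1 mM) with 25 nM fluoresceinated peptidomimetic macrocycle and 50 nM protein in 140 mM NaCl, 50 mM Tris-HCl pH 7.4, 30 min at room temperature. Constants from nonlinear regression.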
# BAX-BAK^wt/wt MEF cells = test: On-mechanism cytotoxic activity, BAX-BAK wt/wt MEF cells; format: cell-based; settings: 5% serum
# A375-P melanoma cells [8] = test: Cell viability (CellTiter-Glo), A375-P; format: cell-based; settings: A375-P; 40 μM, 5% serum
# Procedure: (§2) Cancer cells were cultured using a standard culture medium containing 10% fetal bovine serum (FBS) and penicillin-streptomycin (A375P: DMEM; SK-MEL-2, SK-MEL-28: EMEM). Cells were plated in 96-well plates (5×10^3 cells per well) and, after overnight incubation, treated with the indicated concentrations of Stapled Peptides in the corresponding medium supplemented with 5% FBS for the indicated durations. Cell viability and caspase-3/7 activation was measured using CellTiter-Glo and Caspase-Glo 3/7 chemiluminescence reagents (Promega), respectively. Luminescence was detected by a microplate reader (Spectramax M5, Molecular Devices).
# SK-MEL-2 melanoma cells [9] = test: Caspase-3/7 activation (Caspase-Glo 3/7), SK-MEL-2; format: cell-based; settings: SK-MEL-2; control BIM SAHBA1 40 μM, 5% serum
# Procedure: as §2
# [10] = system: BAX-BAK^−/− double knock outs (DKO) MEF cells; test: On-mechanism cytotoxic activity, BAX-BAK-/- double knock out MEF cells; format: cell-based; settings: 5% serum
# A375-P melanoma cells [11] = test: Caspase-3/7 activation (Caspase-Glo 3/7), A375-P; format: cell-based; settings: A375-P; control BIM SAHBA1 40 μM, 5% serum
# Procedure: as §2
# SK-MEL-28 melanoma cells [12] = test: Caspase-3/7 activation (Caspase-Glo 3/7), SK-MEL-28; format: cell-based; settings: SK-MEL-28; control BIM SAHBA1 40 μM, 5% serum
# Procedure: as §2
# [13] = system: released LDH (damaged cells); test: Lactate dehydrogenase cytotoxicity colorimetric assay; format: cell-based; settings: 5% serum
# Description: When cell membranes are compromised or damaged, lactate dehydrogenase (LDH), a soluble yet stable enzyme found inside every living cell, is released into the surrounding extracellular space. The presence of LDH in the culture medium can be used as a cell death marker. The relative amounts of live and dead cells within the medium can then be quantified by measuring the amount of released LDH using a colorimetric or fluorimetric LDH cytotoxicity assay. When using an LDH colorimetric assay, the amount of LDH released in the surrounding environment is measured with an enzymatic reaction that converts iodonitrotetrazolium (INT) into red-colored formazan. When LDH is present in the cell culture, the LDH reduces NAD^+ to NADH and H^+ through the oxidation of lactate to pyruvate. Afterward, the catalyst (diaphorase) then transfers H/H^+ from NADH^+H^+ to the trazolium salt INT to form the red-colored formazan salt. The amount of color produced is measured at 490 nm by standard spectroscopy, and is proportional to the amount of damaged cells in the culture.
# SK-MEL-2 melanoma cells [14] = test: Cell viability (CellTiter-Glo), SK-MEL-2; format: cell-based; settings: SK-MEL-2; 40 μM, 5% serum
# Procedure: as §2
# SK-MEL-28 melanoma cells [15] = test: Cell viability (CellTiter-Glo), SK-MEL-28; format: cell-based; settings: SK-MEL-28; 40 μM, 5% serum
# Procedure: as §2
# MCL-1 driven Raji cells [16] = system: MCL-1 driven Raji cells
# Bcl-2 = Bcl-2 (Homo sapiens, UniProt P10415); test: Ki determination for Bcl-2 (BCL-2 family binding spectrum); settings: read-out: Ki BCL-2
# Chain of Bcl-2 (P10415 whole entry, species assumed): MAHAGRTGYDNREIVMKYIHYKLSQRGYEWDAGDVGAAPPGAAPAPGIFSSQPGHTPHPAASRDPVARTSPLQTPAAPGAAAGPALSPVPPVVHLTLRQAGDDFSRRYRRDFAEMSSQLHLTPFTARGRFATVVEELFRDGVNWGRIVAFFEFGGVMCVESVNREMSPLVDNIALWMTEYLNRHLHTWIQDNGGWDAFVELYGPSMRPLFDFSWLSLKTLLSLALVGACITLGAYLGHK
# Outline: as §1
# Human Raji cells = format: cell-based; settings: Raji Cell Viability, 48 h, 5% serum
# Procedure: BIM peptidomimetic macrocycles were tested for cell killing at various concentrations. Human Raji cells were treated with increasing doses of peptidomimetic macrocycles corresponding to Aileron peptide A (FIGS. 1 and 2), Aileron peptide B (FIGS. 1-3), and Aileron peptide C (FIGS. 3 and 4). An […] was calculated for each dose of the peptidomimetic macrocycle from a non-linear fit of response vs dose (GraphPad Prism).
compound,measurement,setting,value
"CC1(C)CCC(CN2CCN(c3ccc(C(=O)NS(=O)(=O)c4ccc(NCC5CCOCC5)c([N+](=O)[O-])c4)c(Oc4cnc5[nH]ccc5c4)c3)CC2)=C(c2ccc(Cl)cc2)C1 [ABT-199, venetoclax]",IC50,[1]; Homo sapiens,3100 nM
same,EC50,MCL-1 driven Raji cells [2],3700 to 4900 nM
same,Ki,"Mcl-1 [3]; TABLE 6, † values reported in the literature",> 444 nM
same,Ki,"Mcl-1 [3]; TABLE 8, † reported in the literature",> 444 nM
"CC1(C)CCC(c2ccc(Cl)cc2)=C(CN2CCN(c3ccc(C(=O)NS(=O)(=O)c4ccc(N[C@H](CCN5CCOCC5)CSc5ccccc5)c(S(=O)(=O)C(F)(F)F)c4)cc3)CC2)C1 [ABT-263, navitoclax, reference compound]",disrupting the MCL-1/BAK protein-protein interaction (normalized FRET signal),[4]; 5 μM or 10 μM,did not disrupt
same,Profile,"Mcl-1, Bcl-xL, Bcl-2 [5]",Bcl-xL/Bcl-2 selective
same,Profile,"Mcl-1, Bcl-xL, Bcl-2 [6]",Bcl-xL/Bcl-2 selective
CC[C@H](C)[C@H](NC(=O)[C@H](Cc1c[nH]c2ccccc12)NC(=O)[C@H](CCCNC(=N)N)NC(C)=O)C(=O)N[C@@H](C)C(=O)N[C@@H](CCC(N)=O)C(=O)N[C@@H](C)C(=O)N[C@@H](CC(C)C)C(=O)N[C@@H](CCCNC(=N)N)C(=O)N[C@@]1(C)CCCC=CCCC[C@@](C)(C(=O)N[C@@H](CC(C)C)C(=O)N[C@@H](CC(N)=O)C(=O)NC(C)(C)C(=O)N[C@@H](Cc2ccccc2)C(=O)N[C@@H](Cc2ccc(O)cc2)C(=O)N[C@@H](C)C(=O)N[C@@H](Cc2c[nH]cn2)C(=O)N[C@@H](Cc2c[nH]cn2)C(N)=O)NC(=O)[C@H](CC(=O)O)NC(=O)CNC(=O)[C@H]([C@@H](C)CC)NC1=O [Peptide #14] (Ac-RWIAQALR[S5]IGD[S5]LN[Aib]FYAHH-NH2; staple 9-13),disrupting the MCL-1/BAK protein-protein interaction (normalized FRET signal),[4]; 10 μM and 20 μM,highly effective
same,Ki,"Mcl-1 [7]; TABLE 7, read-out: MCL-1 Ki",11 nM
same,Ki of MCL-1 compared with Ki of BCL-xL or BCL-2,"Mcl-1, Bcl-xL, Bcl-2 [6]; TABLE 7 assay",drastically lower
same,Profile,"Mcl-1, Bcl-xL, Bcl-2 [6]",Mcl-1 selective
CC[C@H](C)[C@H](NC(C)=O)C(=O)N[C@@H](Cc1c[nH]c2ccccc12)C(=O)N[C@H](C(=O)N[C@@H](C)C(=O)N[C@@H](CCC(N)=O)C(=O)N[C@@H](C)C(=O)N[C@@H](CC(C)C)C(=O)N[C@@H](CCCNC(=N)N)C(=O)N[C@]1(C)CCCCCCC=CCCC[C@@](C)(C(=O)N[C@@H](Cc2ccc(O)cc2)C(=O)N[C@@H](Cc2ccc(F)cc2)C(=O)N[C@@H](C)C(N)=O)NC(=O)[C@H](CC(N)=O)NC(=O)[C@H](Cc2ccccc2)NC(=O)[C@H](C)NC(=O)[C@H](CC(=O)O)NC(=O)CNC(=O)[C@H](CCC(C)C)NC1=O)[C@@H](C)CC [Peptide #16] (Ac-IWIAQALR[R8][hLeu]GDAFN[S5]Y[Phe(4-F)]A-NH2; staple 9-16),Ki,"Bcl-xL; TABLE 8, read-out: Bcl-xL Ki",13 nM
same,on-mechanism cytotoxic activity,BAX-BAK^wt/wt MEF cells,exhibited on-mechanism cytotoxic activity
same,% cell viability,A375-P melanoma cells [8],decreased the % viability of the cells
same,Ki,"Mcl-1 [7]; TABLE 8, read-out: Mcl-1 Ki",27 nM
same,Relative caspase-3/7 activation,SK-MEL-2 melanoma cells [9],higher levels of caspase-3/7 activation than the BIM SAHBA1 control
same,on-mechanism cytotoxic activity,[10],did not exhibit on-mechanism cytotoxic activity
same,Relative caspase-3/7 activation,A375-P melanoma cells [11],higher levels of caspase-3/7 activation than the BIM SAHBA1 control
same,potency relative to BIM SAHBA1,[1]; Raji cell line,ten times more potent than BIM SAHBA1
same,IC50,[1],2000 nM
same,Relative caspase-3/7 activation,SK-MEL-28 melanoma cells [12],higher levels of caspase-3/7 activation than the BIM SAHBA1 control
same,off-target cytotoxicity in the LDH assay,[13],No off-target cytotoxicity was observed
same,% cell viability,SK-MEL-2 melanoma cells [14],decreased the % viability of the cells
same,% cell viability,SK-MEL-28 melanoma cells [15],decreased the % viability of the cells
same,Profile,"Mcl-1, Bcl-xL, Bcl-2 [6]",Pan-selective
same,EC50,MCL-1 driven Raji cells [16],1200 to 1600 nM
same,anti-proliferative effects in combination,"MCL-1 driven Raji cells [16]; Raji cells, combined with fixed doses of the other agent (peptide #16 0.95-3.8 μM or ABT-199 1.9-3.8 μM)",enhanced
same,Raji cell proliferation (fraction of control),"MCL-1 driven Raji cells [16]; increasing doses, combination study",decreased
CC[C@H](C)[C@H](NC(C)=O)C(=O)N[C@@H](Cc1c[nH]c2ccccc12)C(=O)N[C@H](C(=O)N[C@@H](C)C(=O)N[C@@H](CCC(N)=O)C(=O)N[C@@H](C)C(=O)N[C@@H](CC(C)C)C(=O)N[C@@H](CCCNC(=N)N)C(=O)N[C@]1(C)CCCCCCC=CCCC[C@@](C)(C(=O)N[C@@H](Cc2ccc(O)cc2)C(=O)N[C@@H](Cc2ccc(O)cc2)C(=O)N[C@@H](C)C(N)=O)NC(=O)[C@H](CC(N)=O)NC(=O)[C@H](Cc2ccccc2)NC(=O)[C@H](CCC(=O)O)NC(=O)[C@H](CC(=O)O)NC(=O)CNC(=O)[C@H]([C@@H](C)CC)NC1=O)[C@@H](C)CC [compound 1649] (Ac-IWIAQALR[R8]IGDEFN[S5]YYA-NH2; staple 9-16),Ki,Bcl-xL; read-out: Ki BCL-XL,1.4 nM
same,Ki,Mcl-1 [7]; read-out: Ki MCL-1,1.8 nM
same,Ki,Bcl-2,3.2 nM
same,EC50,Human Raji cells,> 40 µM

# — patent US20190185518A9, “WARHEAD-CONTAINING PEPTIDOMIMETIC MACROCYCLES AS MODULATORS OF BFL-1” (AILERON Therapeutics, Inc., priority 2017, published 2019)
